This passage reports IC50 results from patent US12371454B2, “Cyclic peptide compound having Kras inhibitory action” (priority 2019, dated 2025).

The structures appear in SMILES notation. Starred links: 1 amine or outer side, 2 acyl side, 3 side chain; linkers in the order of their positions; H or OH if unused. Positions of bridges follow the written chain, without caps; N, C: chain ends. Non-standard residues stand in square brackets, D forms with d. Residues, ends and D or L forms follow the SMILES beside them. *: point of attachment. hPhe(3-Cl-4-CF3) = N[C@@H](CCc1ccc(C(F)(F)F)c(Cl)c1)C(=O)O; NMePhe(4-CF3) = CN[C@@H](Cc1ccc(C(F)(F)F)cc1)C(=O)O; hPhe(4-CF3) = N[C@@H](CCc1ccc(C(F)(F)F)cc1)C(=O)O; NMePhe(4-Cl) = CN[C@@H](Cc1ccc(Cl)cc1)C(=O)O; NMePhe(4-Me) = CN[C@@H](Cc1ccc(C)cc1)C(=O)O; NMePhe(2-Cl) = CN[C@@H](Cc1ccccc1Cl)C(=O)O; NMedβ3hAla = C[C@H](CC(=O)[*:2])N(C)[*:1]; hNle(7,7-F2) = N[C@@H](CCCCC(F)F)C(=O)O; NMeGly(cPent) = CN[C@H](C(=O)O)C1CCCC1; Pro(4,4-F2) = O=C(O)[C@@H]1CC(F)(F)CN1; NMe3Pal = CN[C@@H](Cc1cccnc1)C(=O)O; NMeCha = CN[C@@H](CC1CCCCC1)C(=O)O; NMeChg = CN[C@H](C(=O)O)C1CCCCC1; NMeF = CN[C@@H](Cc1ccccc1)C(=O)O; NMeI = CC[C@H](C)[C@H](NC)C(=O)O; NMeD = CN[C@@H](CC(=O)O)C(=O)O; NMeL = CN[C@@H](CC(C)C)C(=O)O; NMeV = CN[C@H](C(=O)O)C(C)C; d(β3hA) = C[C@@H](N)CC(=O)O; NMeA = CN[C@@H](C)C(=O)O; NMeAib = CNC(C)(C)C(=O)O; Piperidide = C1CCN(*)CC1; Ac5c = NC1(C(=O)O)CCCC1; Aze = O=C(O)[C@@H]1CCN1; Ac4c = NC1(C(=O)O)CCC1; Sar = CNCC(=O)O

The target in this assay is T1, Kras and SOS1 (biotin-tagged human Kras loaded with GDP, His-tagged human SOS1) (Homo sapiens, UniProt P01116, G12D).
T1 construct: made in house; host or cells: E. coli (stated for Kras only)
T1 sequence (P01116 1-188 isoform P01116-2 G12D): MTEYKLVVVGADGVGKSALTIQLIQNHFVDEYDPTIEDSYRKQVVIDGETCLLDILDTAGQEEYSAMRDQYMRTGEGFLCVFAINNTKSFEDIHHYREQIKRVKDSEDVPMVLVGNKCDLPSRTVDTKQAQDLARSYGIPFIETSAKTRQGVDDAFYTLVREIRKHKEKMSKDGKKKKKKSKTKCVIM
Description: Protein-protein interaction inhibition between Kras and SOS1 (KrasGl2D-SOS PPI) using AlphaScreen. In kind it is binding. The following applies: AlphaScreen; biotin-tagged human Kras loaded with GDP, His-tagged human SOS1; read-out: KRAS G12D-SOS PPI IC50. The protocol:
Protein-Protein Interaction Inhibition Between Kras and SOS1 (KrasGl2D-SOS PPI) Using AlphaScreen
Protein-protein interaction inhibition (PPI) between Kras and SOS1 was measured by energy transfer from nickel-conjugated donor beads to streptavidin-conjugated acceptor beads using biotin-tagged human Kras expressed in E. coli and loaded with GDP after purification and His-tagged human SOS1 enzyme. This measurement utilizes the phenomenon in which donor beads are irradiated with light at 680 nm, such that energy is transferred to acceptor beads through singlet oxygen and light at 520-620 nm is detected from the acceptor beads.
Inhibition of binding between K-ras and SOS1 is known to inhibit signaling downstream of Kras.
As for `CC[C@H](C)[C@@H]1NC(=O)[C@H](CC(C)C)N(C)C(=O)C[C@@H](C)N(C)C(=O)[C@H](C2CCCC2)N(C)C(=O)C2(CCC2)NC(=O)[C@@H]2CC(F)(F)CN2C(=O)[C@H](CCc2ccc(C(F)(F)F)c(Cl)c2)NC(=O)CN(C)C(=O)[C@H](Cc2ccc(C(F)(F)F)cc2)N(C)C(=O)CN(C)C(=O)CN(C)C1=O` [Compound 62] (cyclo([Ac4c][NMeGly(cPent)][NMedβ3hAla][NMeL]I[Sar][Sar][NMePhe(4-CF3)][Sar][hPhe(3-Cl-4-CF3)][Pro(4,4-F2)])), the half-inhibitory concentration (IC50) came to 3.8 nM.

Turning to `CC[C@H](C)[C@@H]1NC(=O)[C@H](CC(C)C)N(C)C(=O)C[C@@H](C(=O)N2CCCCC2)N(C)C(=O)[C@H](C2CCCCC2)N(C)C(=O)C2(CCCC2)NC(=O)[C@H](Cc2cccnc2)N(C)C(=O)[C@H](CCc2ccc(C(F)(F)F)c(Cl)c2)NC(=O)CN(C)C(=O)[C@H](CC2CCCCC2)N(C)C(=O)CN(C)C(=O)CN(C)C1=O` [Compound 63] ([NMeL]I[Sar][Sar][NMeCha][Sar][hPhe(3-Cl-4-CF3)][NMe3Pal][Ac5c][NMeChg][NMeD]-Piperidide; lactam N-11), the IC50 came to 3.7 nM. As to `CC[C@H](C)[C@@H]1NC(=O)[C@H](CC(C)C)N(C)C(=O)C[C@@H](C(=O)N(C)C)N(C)C(=O)[C@H]([C@@H](C)CC)N(C)C(=O)C2(CCCC2)NC(=O)[C@@H](C)NC(=O)[C@H](CCc2ccc(C(F)(F)F)c(Cl)c2)NC(=O)CN(C)C(=O)[C@H](Cc2ccc(C)cc2)N(C)C(=O)[C@@H]2CCN2C(=O)[C@H](C)N(C)C1=O` [Compound 67] ([NMeL]I[NMeA][Aze][NMePhe(4-Me)][Sar][hPhe(3-Cl-4-CF3)][dA][Ac5c][NMeI][NMeD]-NMe2; lactam N-11), the IC50 is 8.3 nM. Next, `CC[C@H](C)[C@@H]1NC(=O)[C@H](C)N(C)C(=O)C[C@@H](C)NC(=O)[C@H](C(C)C)N(C)C(=O)[C@H](Cc2ccccc2)N(C)C(=O)[C@H](CC(C)C)N(C)C(=O)[C@H](CCc2ccc(C(F)(F)F)cc2)NC(=O)CN(C)C(=O)[C@H](Cc2ccc(Cl)cc2)N(C)C(=O)CN(C)C(=O)[C@@H]2CCN2C1=O` [Compound 71] (cyclo([Aze][Sar][NMePhe(4-Cl)][Sar][hPhe(4-CF3)][NMeL][NMeF][NMeV][d(β3hA)][NMeA]I)): 150 nM; `CC[C@H](C)[C@@H]1NC(=O)[C@H](CC(C)C)N(C)C(=O)C[C@@H](C)NC(=O)[C@H](C(C)C)N(C)C(=O)C2(CCCC2)NC(=O)[C@@H]2CCCN2C(=O)[C@H](CCc2ccc(C(F)(F)F)c(Cl)c2)NC(=O)[C@H]2CCCN2C(=O)[C@H](CC2CCCCC2)N(C)C(=O)CN(C)C(=O)CN(C)C1=O` [Compound 76] (cyclo([Ac5c][NMeV][d(β3hA)][NMeL]I[Sar][Sar][NMeCha][dP][hPhe(3-Cl-4-CF3)]P)): 190 nM; `CC[C@H](C)[C@@H]1NC(=O)[C@H](C)N(C)C(=O)C[C@@H](C)NC(=O)[C@H](C(C)C)N(C)C(=O)C2(CCCC2)NC(=O)[C@@H]2CCCN2C(=O)[C@H](CCc2ccc(C(F)(F)F)c(Cl)c2)NC(=O)[C@H]2CCCN2C(=O)[C@H](CC2CCCCC2)N(C)C(=O)[C@@H]2CCN2C(=O)CN(C)C1=O` [Compound 77] (cyclo([Ac5c][NMeV][d(β3hA)][NMeA]I[Sar][Aze][NMeCha][dP][hPhe(3-Cl-4-CF3)]P)): 100 nM.

As for `CC[C@H](C)[C@@H]1NC(=O)[C@H](C)N(C)C(=O)C[C@@H](C)NC(=O)[C@H](C2CCCC2)N(C)C(=O)C2(CCCC2)NC(=O)[C@@H]2CCCN2C(=O)[C@H](CCc2ccc(C(F)(F)F)c(Cl)c2)NC(=O)CN(C)C(=O)[C@H](Cc2ccccc2Cl)N(C)C(=O)[C@@H]2CCCN2C(=O)CN(C)C1=O` [Compound 82] (cyclo([Ac5c][NMeGly(cPent)][d(β3hA)][NMeA]I[Sar]P[NMePhe(2-Cl)][Sar][hPhe(3-Cl-4-CF3)]P)), the IC50 is 140 nM.

Take `CC(C)C[C@H]1C(=O)N[C@@H](CCCCC(F)F)C(=O)N(C)CC(=O)N(C)CC(=O)N(C)[C@@H](CC2CCCCC2)C(=O)N(C)CC(=O)N[C@@H](CCc2ccc(C(F)(F)F)c(Cl)c2)C(=O)N2CCC[C@H]2C(=O)NC2(CCCC2)C(=O)N(C)[C@@H](C2CCCCC2)C(=O)N(C)[C@H](C(=O)N2CCCCC2)CC(=O)N1C` [Compound 92] ([NMeL][hNle(7,7-F2)][Sar][Sar][NMeCha][Sar][hPhe(3-Cl-4-CF3)]P[Ac5c][NMeChg][NMeD]-Piperidide; lactam N-11): the IC50 was 5.5 nM. As to `CC[C@H](C)[C@@H]1NC(=O)[C@H](C)N(C)C(=O)C[C@@H](C)NC(=O)[C@H](C(C)C)N(C)C(=O)C(C)(C)N(C)C(=O)[C@@H]2CCCN2C(=O)[C@H](CCc2ccc(C(F)(F)F)c(Cl)c2)NC(=O)CN(C)C(=O)[C@H](CC2CCCCC2)N(C)C(=O)CN(C)C(=O)CN(C)C1=O` [Compound 93] (cyclo(I[Sar][Sar][NMeCha][Sar][hPhe(3-Cl-4-CF3)]P[NMeAib][NMeV][d(β3hA)][NMeA])), the IC50 is 6.9 nM.
